{
  "source": "patent US20100004171A1",
  "about": "“Therapeutic Methods for Neuropathic Pain” (priority 2006, published 2010)",
  "key": {"agrin mRNA": {"test_system": "agrin mRNA", "assay": "RT-PCR of agrin gene expression (C-terminal primers) in L3-5 spinal cord", "format": "in vivo, rat", "protocol": "Gene expression alterations after the nerve injury: Gene expression for amino(“N”)- and carboxy(“C”)-terminal halves of agrin was analyzed from L3-5 spinal cord of the rats (sacrificed at 2 hr, 24 hr, 3 days, and 7 days post surgery), using RT-PCR and real-time PCR. The differences in gene expression between sham-operated and nerve-injured groups were compared.\nTotal RNA extraction: The rats were deeply anesthetized with isoflurane and decapitated. The spinal cord from L3-5 was quickly removed and immediately put into a tube containing TRIzol® (2 ml, Invitrogen, Carlsbad, Calif.). The tissue was homogenized with IKA® T8 homogenizer (IKA®, Staufen, Germany) for 2 min, allowed to stand at room temperature for 3 min, and 0.4 ml chloroform added. The tube was vortexed and centrifuged at 12,000×g for 15 min. The water phase was transferred to a clean tube without any contamination from other phases. Then 1 ml isopropanol was added to the water phase, and the mixture allowed to stand for 10 min at room temperature. The tube was centrifuged for 10 min at 12,000×g. The supernatant was discarded, and the pellet washed with 1 ml 70% ethanol. The ethanol was discarded, and the RNA was re-dissolved in 30 μl nucleotide-free water. A 1 μl aliquot was taken and reserved to dilute 20-fold for RNA quality control. […]\n[…]. Changes in agrin gene induced by the injected drug was analyzed and compared."}, "agrin protein": {"test_system": "agrin protein", "assay": "Western blot of agrin protein in L3-5 spinal cord", "format": "in vivo, rat", "protocol": "Western blot for detecting protein expression of agrin: Agrin protein was analyzed from L3-5 spinal cord with Western blot as described below at times of 1 day, 3 days, and 7 days post-surgery. The changes in these proteins between sham-operated, nerve-injured (no drug), and nerve-injured (pre-emptive drug) groups were analyzed.\nAgrin Protein Extraction: The rats were deeply anesthetized with isoflurane and decapitated. Spinal cord L3-5 was quickly removed and immediately placed into tissue lysis buffer (1 ml, Sigma Co., St. Louis, Mo.) that contained protein enzyme inhibitors (1:100, Halt, Pierce). The tissue was homogenized for 2 min and incubated on ice for 45 min. The sample was then centrifuged at 10,000×g for 30 min at 4° C. The supernatant was transferred to a new tube and centrifuged again for further clarifying. The concentration of the protein was determined by an Agilent's Bio-Rad protein chip (Agilent's 2100 bioanalyzer, Santa Clara, Calif.) and by the […] (reagents from Bio-Rad).\nWestern blot: Protein (20 μg) from each sample was mixed with 2× electrophoresis buffer and boiled for 5 min. The samples, along with a negative control, were loaded on 4-15% acrylamide tris-glycine SDS gels and electrophoresed in a cell (Bio-Rad) for approximately 1 hr. A Hybond-P polyvinylidene difluoride membrane (Bio-Rad, Hercules, Calif.) was used for transferring the protein in a mini-trans-blot transfer cell (Bio-Rad) for 2 hr. The membrane was then soaked in 2% milk for 1 hour and probed with monoclonal agrin antibody (Agr510 and Agr530, 1:5000, StressGen Biotechnologies Corp., Victoria, Canada) or β-actin antibody (1:5000) at 4° C. overnight with continual shaking. The following day goat anti-mouse secondary antibody conjugated to Alexa Fluor680 (1:5000, Molecular Probe) was added to the membrane and incubated for 1 hr at room temperature. The samples were washed three times with TBS buffer (Tris Buffered Saline, DAKO, Carpinteria, Calif.) between steps. The membrane was then scanned with an Odyssey (LI-COR) scanner and analyzed by Odyssey software (Li-Cor, Lincoln, Nebr.).\nIn rats with tactile allodynia (a withdrawal threshold with a filament below 8 g), an intrathecal catheter (PE 10) was installed and linked to an osmotic pump (Alzet) in a 37° C. water bath. Following a bolus injection of SCP-1 (30 nmol/kg, 10 μl), agrin siRNA (100 nM) was intrathecally administered continuously by the pump at a rate of 5 μl/1 hour for 4 hr. The animals were subjected to von Frey filament test every 15 min for 4 hr to determine whether the effects of SCP-1 on allodynia suppression are blocked by agrin siRNA. A control siRNA (nFsiRNA) was applied in the same way. The behavioral data was analyzed for agrin effects. […]"}, "[1]": {"assay": "Solubility for intrathecal injection", "format": "physicochemical", "protocol": "The maximum volume injected at any one time was 10 μl.^[79]"}, "[2]": {"test_system": "tactile allodynia in allodynic rats", "assay": "Tactile allodynia test (von Frey filaments, paw withdrawal threshold) in CCI (Bennett model) rats", "format": "in vivo, rat", "conditions": "for effect on tactile allodynia: day 7 after injury"}, "rodents": {"test_system": "rodents", "conditions": "orally to rodents, 3.7 mmol/kg to 36 mmol/kg; cited from earlier work"}, "[3]": {"test_system": "cultured human hepatocytes", "conditions": "100 μM; cited from earlier work"}, "nociceptive pain": {"test_system": "nociceptive pain", "conditions": "cited from earlier work"}, "[4]": {"test_system": "Bennett model rats with hyperalgesia and allodynia", "conditions": "intrathecally, 30 nmol/kg; cited from earlier work"}},
  "data": [
    {"smiles": "O=C(CN1C(=O)c2ccccc2S1(=O)=O)Nc1ccc(O)cc1", "note": "[SCP-1]", "values": [
      {"measurement": "agrin mRNA", "setting": "agrin mRNA; allodynic rats, intrathecal injection 7 days post injury, one- and two-hour post injection", "result": "increased"},
      {"measurement": "agrin mRNA", "setting": "agrin mRNA; pre-emptive intrathecal injection prior to CCI, 3 and 7 days post-injury", "result": "did not show a decrease in agrin mRNA"},
      {"measurement": "agrin protein level", "setting": "agrin protein; allodynic rats, 2 h post-SCP-1 injection", "result": "up-regulated to a normal level"},
      {"measurement": "agrin protein", "setting": "agrin protein; pre-emptive intrathecal injection prior to CCI, 3 and 7 days", "result": "did not decrease"},
      {"measurement": "solubility in 45% 2-hydroxypropyl-α-cyclodextrin in saline", "setting": "[1]; 45% cyclodextrin in saline, 10 mM solutions prepared", "result": "can dissolve them"},
      {"measurement": "solubility in water", "setting": "[1]; water", "result": "do not dissolve readily in water"},
      {"measurement": "duration of suppressive effect", "setting": "[2]; Example 9: SCP-1 alone", "result": "at least 4 hr"},
      {"measurement": "effect on tactile allodynia", "setting": "[2]; intrathecal 1 nmol", "result": "did not affect tactile allodynia"},
      {"measurement": "effect on tactile allodynia", "setting": "[2]; intrathecal 10 nmol", "result": "did not affect tactile allodynia"},
      {"measurement": "effect on tactile allodynia", "setting": "[2]; intrathecal 50 nmol", "result": "only a mild effect"},
      {"measurement": "withdrawal threshold at 2 hr post-injection", "setting": "[2]; intrathecal 100 nmol", "result": "27.3 ± 2.5", "unit": "g"},
      {"measurement": "withdrawal threshold at 90 min after injection", "setting": "[2]; intrathecal 100 nmol, basal threshold 4.6±1.1 g", "result": "28 ± 2.4", "unit": "g"},
      {"measurement": "effect on tactile allodynia", "setting": "[2]; intrathecal 200 nmol", "result": "suppressed the tactile allodynia"},
      {"measurement": "effect on tactile allodynia (paw withdrawal threshold)", "setting": "[2]; pre-emptive intrathecal 100 nmol in 10 μl saline immediately prior to CCI, 0, 3, 7 days", "result": "prevented"},
      {"measurement": "duration of prevention of tactile allodynia", "setting": "[2]; pre-emptive intrathecal 100 nmol prior to CCI", "result": "up to 7 days"},
      {"measurement": "effect on paw withdrawal threshold at 7 days", "setting": "[2]; pre-emptive intrathecal 100 nmol prior to CCI, 7 days after injury", "result": "remained strong"},
      {"measurement": "toxicity after oral dosing", "setting": "rodents", "result": "the animals were still moving normally"},
      {"measurement": "apoptosis", "setting": "[3]", "result": "did not induce apoptosis"},
      {"measurement": "effect on nociceptive pain", "setting": "nociceptive pain; formalin- and CFA-induced, rodent models, without any toxicity", "result": "suppressed formalin- and CFA-induced nociceptive pain"},
      {"measurement": "acute liver or kidney toxicity", "setting": "nociceptive pain; while relieving nociceptive pain", "result": "without acute liver or kidney toxicity"},
      {"measurement": "effect on allodynia and hyperalgesia", "setting": "[4]", "result": "depressed the signs of allodynia and hyperalgesia"}
    ]}
  ]
}
